A short description of assay [1]: RORgamma Gal4 Reporter Gene Assay (FF): Cells were incubated for additional 16 h before firefly (FF) luciferase activities were measured sequentially in the same cell extract using a Dual-Light-Luciferase-Assay system (Dyer et al., Anal. Biochem. 2000, 282:158). All experiments were done at least in triplicates. On the technique in general: Reporter assays use an easily measured gene product as a stand-in for the process of interest.

Assay [2] in a line: RORgamma Gal4 Reporter Gene Assay (REN): Cells were incubated for additional 16 h before renilla (REN) luciferase activities were measured sequentially in the same cell extract using a Dual-Light-Luciferase-Assay system (Dyer et al., Anal. Biochem. 2000, 282:158). All experiments were done at least in triplicates.

Broadly, the IC50 is the point on the concentration scale where inhibition reaches its midpoint. `O=CO[C@H]1C[C@H](NC(=O)c2nc(CC3CCCCC3)c(-c3ccc(OC(F)(F)F)c4ccccc34)s2)C1`: the IC50 in assay [1] and in assay [2] was 0.126 µM in each case.

As for `CC(C)(O)CNC(=O)c1nc(C(=O)C2CCC(C)(C)CC2)c(-c2ccc(S(=O)(=O)NC(C)(C)C)c3ccccc23)s1`, the values for the IC50 in assay [1] and in assay [2] were 0.0251 µM and 0.0316 µM, respectively.

Take `CC(C)(C)NS(=O)(=O)c1ccc(-c2sc(C(=O)N[C@H]3C[C@H](C(=O)O)C3)nc2Cc2ccccc2)c2ccccc12`: in assay [1], 0.0265 µM corresponded to half-maximal inhibition (IC50).

Consider `CC(=O)NS(=O)(=O)c1nc(-c2cc(C(C)(C)C)cc(C(C)(C)C)c2)c(CC2CCCCC2)s1`, for which the IC50 in assay [1] and in assay [2] was under 20 µM throughout.

Consider `COc1ccc(-c2sc(C(=O)N[C@H]3C[C@H](OC=O)C3)nc2CC2CCCCC2)c2ccccc12`, for which the IC50 in assay [1] and in assay [2] was 0.251 µM each time.

`CC(C)(C)NS(=O)(=O)c1ccc(-c2sc(C(=O)NC3CCC3)[n+]([O-])c2CC2CCCCC2)c2ccccc12`: the IC50 in assay [1] and in assay [2] was 0.0316 µM each time.

In the case of `CC(C)(O)CNC(=O)c1nc(CC2CCC2)c(-c2ccc(S(=O)(=O)NC(C)(C)C)c(Cl)c2OC(F)F)s1`, the IC50 in assay [1] came to 0.0316 µM; in assay [2], 0.0398 µM.

Take `CC(C)(C)NS(=O)(=O)c1ccc(-c2sc(C(=O)NC3CCC3)nc2CC2CCCCC2)c(OC(F)(F)F)c1`: the IC50 is 0.01 µM in assay [1] and 0.00631 µM in assay [2].

As for `CC(C)(C)c1cc(-c2sc(C(=O)NC3CC(OC=O)C3)nc2CC2CCCCC2)nc(C(C)(C)C)n1` (stereo unspecified), the IC50 in assay [1] and in assay [2] was 0.126 µM throughout.

In the case of `CC(C)(O)CNC(=O)c1nc(CC2CCCCC2)c(-c2ccc(S(N)(=O)=O)c(Cl)c2Cl)s1`, the IC50 in assay [1] and in assay [2] was under 20 µM each time.

Compound `CC(C)(C)NS(=O)(=O)c1ccc(-c2oc(C(=O)N3CC4(CCS(=O)(=O)CC4)C3)nc2CC2CCCCC2)c2ccccc12` registered an IC50 in assay [1] of 1.26 µM.

For `O=C(NC1CCS(=O)(=O)CC1)c1nc(CC2CCCCC2)c(-c2ccc(C3(O)CCC3)c3ccccc23)s1`, the values for the IC50 in assay [1] and in assay [2] were 0.501 µM and 0.631 µM, respectively.

Consider `C[C@H](NS(=O)(=O)c1ccc(-c2sc(C(=O)N3CC4(C3)CS(=O)(=O)C4)nc2CC2CC2)c2ccccc12)C(F)(F)F`, for which the IC50 in assay [1] and in assay [2] was 0.00631 µM each time.

Consider `CC(C)(C)c1cc(-c2nc(C(=O)N[C@H]3C[C@H](OC=O)C3)oc2CC2CCCCC2)cc(C2(C)CC2)c1`, for which the IC50 in assay [1] is 0.398 µM; in assay [2], 0.251 µM.

In the case of `CC(C)(O)CN1CCN(C(=O)c2nc(CC3CCCCC3)c(-c3ccc(S(=O)(=O)NC(C)(C)C)c4ccccc34)s2)CC1`, the IC50 in assay [1] came to 0.158 µM; in assay [2] it was 0.126 µM.

For `CC(C)(C)NS(=O)(=O)c1ccc(-c2sc(C(=O)NC3CCOCC3)nc2CC2CCCCC2)cc1C(C)(C)C`, the IC50 in assay [1] is 0.0158 µM; in assay [2], 0.0126 µM.

Consider `CC(C)(C)NS(=O)(=O)c1ccc(-c2oc(C(=O)NC3CCS(=O)(=O)CC3)nc2CC2CCCCC2)c(Cl)c1Cl`, for which the IC50 in assay [1] came out at 0.00398 µM; in assay [2] it was 0.00631 µM.

As for `CC(C)(C)c1cc(-c2nc(C(N)=O)oc2CC2CCCCC2)cc(C(C)(C)C)c1`, the IC50 in assay [1] and in assay [2] was under 20 µM in each case.

For the compound `C[C@H](NC(=O)c1cc(-c2sc(C(=O)NCC(C)(C)c3noc(=O)[nH]3)nc2CC2CCCCC2)cc(C2(C)CC2)c1)C(F)(F)F`, the IC50 in assay [1] and in assay [2] was 0.00501 µM throughout.

On to `O=CO[C@H]1C[C@H](NC(=O)c2nc(CC3CCCCC3)c(-c3ccc(OCC(F)(F)F)c4ccccc34)s2)C1`, for which the IC50 was 0.316 µM in assay [1] and 0.631 µM in assay [2].

Consider `CC(C)(C)NS(=O)(=O)c1cnc(-c2sc(C(=O)N[C@H]3C[C@H](C(=O)O)C3)nc2CC2CCCCC2)nc1C(C)(C)C`, for which the IC50 in assay [1] is 0.2 µM; in assay [2], 0.398 µM.

`CC(C)(C)NS(=O)(=O)c1ccc(-c2oc(C(=O)NC3CCOCC3)nc2CC2CCCCC2)c2ccccc12`: the figures for the IC50 in assay [1] and in assay [2] were 0.0158 µM and 0.0126 µM, respectively.

Regarding `CC(C)(O)CNC(=O)c1nc(CC2CCCCC2)c(-c2ccc(S(=O)(=O)NC(C)(C)C)c(Cl)c2Cl)o1`, the concentration for half-maximal inhibition (IC50) in assay [1] is 0.0398 µM; in assay [2], 0.0316 µM.

In the case of `CC(C)(C)NS(=O)(=O)c1ccc(-c2sc(C(=O)NC3CCOCC3)nc2CC2CCCCC2)cc1C(F)(F)F`, the values for the IC50 in assay [1] and in assay [2] were 0.01 µM and 0.00501 µM, respectively.

Turning to `CC(C)(C)c1cc(-c2sc(C(=O)NC3CC(OC=O)C3)nc2CC2CCCCC2)nc(C2(C)CC2)n1` (stereo unspecified), the IC50 in assay [1] turned out to be 0.158 µM; in assay [2] it was 0.2 µM.

For the compound `CC(C)(C)c1cc(-c2sc(C(=O)NC3CCC3)[n+]([O-])c2CC2CCCCC2)cc(C2(C)CC2)c1`, the IC50 stood at 0.0316 µM in assay [1] and 0.0251 µM in assay [2].

`CC(C)(C)NS(=O)(=O)c1ccc(-c2sc(C(=O)NN3CCOCC3)nc2CC2CCCCC2)c(Cl)c1Cl` had an IC50 in assay [2] of 0.002 µM. This lies in the single-digit nanomolar range.

Regarding `C[C@H](NS(=O)(=O)c1ccc(-c2sc(C(=O)NCC(C)(C)O)nc2CC2CCC2)c(Cl)c1)C(F)(F)F`, in assay [2], inhibition was half-maximal at 0.0126 µM (IC50).

In assay [2], `CC(C)(C)NS(=O)(=O)c1ccc(-c2sc(C(=O)NCCC(C)(C)C(=O)O)nc2CC2CCCCC2)cc1C(F)(F)F` returned an IC50 of 0.0398 µM. Against the preceding compound, the IC50 is about 3.2-fold higher.

`CC(C)(C)NS(=O)(=O)c1ccc(-c2sc(C(=O)N[C@H]3C[C@H](C(=O)O)C3)nc2CC2CCCCC2)cc1C(F)(F)F`: the IC50 in assay [2] amounted to 0.01 µM.

Turning to `CC(C)(C)NS(=O)(=O)c1ccc(-c2sc(C(=O)NN3CCS(=O)(=O)CC3)nc2CC2CCCCC2)c(Cl)c1Cl`, in assay [2], the IC50 was 0.002 µM.

Consider `CC(C)(C)NS(=O)(=O)c1ccc(-c2sc(C(=O)NC3CCC3)nc2CC2CCCCC2)c(OC(F)F)c1Cl`, for which the values for the IC50 in assay [1] and in assay [2] were 0.01 µM and 0.00501 µM, respectively.

For `CC(C)(C)NS(=O)(=O)c1ccc(-c2nc(C(=O)NC34CCC(C(=O)O)(CC3)CC4)oc2CC2CCCCC2)c2ccccc12`, the IC50 in assay [2] turned out to be 0.0398 µM.

`CC(C)(C)c1cc(-c2sc(C(=O)N[C@H]3C[C@H](C(=O)O)C3)nc2CC2CCCCC2)cc(C(C)(F)F)c1` showed an IC50 in assay [2] of 0.0398 µM.

In assay [2], `CC(C)(C)NS(=O)(=O)c1ccc(-c2sc(C(=O)NC3CCC(C(=O)O)C3)nc2CC2CCCCC2)c2ccccc12` (stereo unspecified) displayed a 50% inhibitory concentration (IC50) of 0.00398 µM.

On to `CCOC(=O)c1nc(Cc2ccccc2)c(-c2ccc(S(=O)(=O)NC(C)(C)C)c3ccccc23)s1`, for which the IC50 in assay [1] amounted to 0.0126 µM; in assay [2] it was 0.01 µM.

In turn, `CC(C)(C)NS(=O)(=O)c1ccc(-c2sc(C(=O)NCCC(C)(C)C(=O)O)nc2CC2CCCCC2)c(Cl)c1Cl` had a 50% inhibitory concentration (IC50) in assay [2] of 0.00631 µM.

Turning to `CC(C)(C)NS(=O)(=O)c1ccc(-c2sc(C(=O)NC3COC3)nc2CC2CCCCC2)c(Cl)c1Cl`, the concentration for half-maximal inhibition (IC50) in assay [2] turned out to be 0.00316 µM.

As for `CC(C)(C)c1cc(-c2sc(S(=O)(=O)NC(=O)OCc3ccccc3)nc2CC2CCCCC2)cc(C2(C)CC2)c1`, the IC50 in assay [1] and in assay [2] was under 20 µM throughout.

The values are drawn from ChEMBL document CHEMBL5727000, “Carboxamide or sulfonamide substituted thiazoles and related derivatives as modulators for the orphan nuclear receptor ROR[γ]” (2019).
